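Five concentrations, 48 hours, 96-well plates. Abbreviation: GI50, concentration required for 50% inhibition of growth. TGI: total growth inhibition.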
Columns and labels:
Experiment in all cases: DTP human tumour cell line panel, 48 h
[1] = test system: SF-268 CNS
[2] = test system: NCI-H522 lung
[3] = test system: HT29 colon
[4] = test system: RPMI-8226 leukemia
[5] = test system: ACHN renal
[6] = test system: DU-145 prostate
[7] = test system: SW-620 colon
[8] = test system: OVCAR-8 ovarian
[9] = test system: SNB-75 CNS
[10] = test system: MALME-3M melanoma

Structure (SMILES) | GI50 [1] | TGI [1] | GI50 [2] | TGI [2] | GI50 [3] | TGI [3] | GI50 [4] | TGI [4] | GI50 [5] | TGI [5] | GI50 [6] | TGI [6] | GI50 [7] | TGI [7] | GI50 [8] | TGI [8] | TGI [9] | TGI [10] | GI50 [10]
COc1ccc(C(C)c2cc(OC)c(OC)c(OC)c2)cc1 (stereo unspecified) | 0.621 µM | > 50 µM | 0.133 µM | > 50 µM | 0.107 µM | > 50 µM | 0.209 µM | > 50 µM | 0.341 µM | > 50 µM | 0.198 µM | > 50 µM | 0.0581 µM | > 50 µM | 0.263 µM | > 50 µM | – | – | –
C[P+](C)(C)C | – | > 100 µM | – | – | – | > 100 µM | – | > 100 µM | – | > 100 µM | – | – | – | > 100 µM | – | > 100 µM | > 100 µM | > 100 µM | –
CCc1cccc(C(C)C)c1NC(=O)CCl | – | > 100 µM | – | > 100 µM | – | > 100 µM | – | > 100 µM | – | > 100 µM | – | – | – | > 100 µM | – | – | > 100 µM | > 100 µM | –
CC1(C)CCCC2(C)C3C(O)CC2(C)C(O)C31 (stereo unspecified) | – | > 100 µM | – | > 100 µM | – | > 100 µM | – | – | – | > 100 µM | – | – | – | > 100 µM | – | > 100 µM | > 100 µM | > 100 µM | –
NCCCCCNc1noc(Cc2c[nH]c3cc(Br)ccc23)n1 | 8.13 µM | 29.1 µM | 0.748 µM | 12.6 µM | 1.08 µM | 10.3 µM | 2.88 µM | 25.2 µM | 9.02 µM | 21.7 µM | 3.11 µM | 9.01 µM | 0.707 µM | 16.9 µM | 3.74 µM | 39.4 µM | – | 22.7 µM | 2.59 µM
Cn1c(=O)nc2n(-c3ccc(Cl)cc3)c(-c3ccccc3)c(-c3ccccc3)nc-2c1=O | – | > 100 µM | – | > 100 µM | – | > 100 µM | – | 71.1 µM | – | 49.8 µM | – | – | – | > 100 µM | – | > 100 µM | > 100 µM | > 100 µM | –
CCCCCCCCOCC(O)CO (stereo unspecified) | – | > 100 µM | – | > 100 µM | – | > 100 µM | – | > 100 µM | – | > 100 µM | – | – | – | > 100 µM | – | > 100 µM | > 100 µM | > 100 µM | –
Cc1cccc(C)c1NC(=O)CCC/C(CC(=O)c1ccc(F)cc1)=N\NC(=O)C(=O)NN | – | > 100 µM | – | – | – | > 100 µM | – | > 100 µM | – | > 100 µM | – | – | – | > 100 µM | – | > 100 µM | > 100 µM | > 100 µM | –
CCOC(=O)C1C=C2O[C@@H]3OC4(CCCCC4)O[C@@H]3C2C2C(=O)CCC(=O)[C@@]12C(=O)OC (stereo partly specified) | – | > 100 µM | – | > 100 µM | – | – | – | > 100 µM | – | > 100 µM | – | – | – | > 100 µM | – | > 100 µM | > 100 µM | > 100 µM | –
Nc1ccc(-c2cc(C(=O)Nc3nccs3)[nH]c(=S)n2)cc1 | – | > 100 µM | – | > 100 µM | – | > 100 µM | – | > 100 µM | – | > 100 µM | – | – | – | > 100 µM | – | > 100 µM | > 100 µM | > 100 µM | –

— PubChem BioAssay (NCI)
